# Experimental data from US7560586B2, “Acid and ester compounds and methods of using the same” (SmithKline Beecham Corporation, priority 2002, dated 2009).
# How the values were obtained:
# [1] = molecular target: T1, human LXRβ ligand binding domain (Homo sapiens, UniProt P55055); assay: Ligand Sensing Assay (LiSA) for LXRβ Agonist Activity (recruitment of SRC1-derived peptide, HTRF); format: biochemical; settings: 1 μM; over a background reading of 10000 fluorescence units
# T1 construct: LXRβLBD(185-461) is eluted with a gradient from 50 to 500 mM imidazole; made in house; host or cells: E. coli BL21(DE3), vector pRSETa
# T1 sequence (P55055 184-460 limits assumed): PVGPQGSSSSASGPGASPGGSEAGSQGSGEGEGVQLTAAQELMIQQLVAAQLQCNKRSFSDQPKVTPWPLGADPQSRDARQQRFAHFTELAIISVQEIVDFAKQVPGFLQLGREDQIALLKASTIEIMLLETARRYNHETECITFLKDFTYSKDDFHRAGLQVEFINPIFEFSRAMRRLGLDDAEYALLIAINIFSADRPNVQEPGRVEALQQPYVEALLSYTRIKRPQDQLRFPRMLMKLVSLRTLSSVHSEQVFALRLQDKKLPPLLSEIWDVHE
# T1 sequence (Q15788 676-700 partner limits assumed): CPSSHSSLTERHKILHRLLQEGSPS
# Source text: Test Method 1: Ligand Sensing Assay (LiSA) for LXRβ Agonist Activity
# This assay measures the recruitment of a peptide derived from the coactivator protein, SRC1, to the agonist-bound LXRβ. Peptides derived from other nuclear receptor cofactors may be similarly prepared and assayed.
# To generate the human LXRβ ligand binding domain suitable for LiSA, a modified polyhistidine tag (MKKGHHHHHHG) (SEQ ID No. 1) was fused in frame to the human LXRβ ligand binding domain (amino acids 185461 of Genbank accession number U07132) and subcloned into the expression vector pRSETa (Invitrogen) under the control of an IPTG inducible T7 promoter. The human LXRβ ligand binding domain was expressed in E. coli strain BL21(DE3). Ten-liter fermentation batches were grown in Rich PO4 media with 0.1 mg/mL Ampicillin at 25° C. for 12 hours, cooled to 9° C. and held at that temperature for 36 hours to a density of OD600=14. At this cell density, 0.25 mM IPTG was added and induction proceeded for 24 hours at 9° C., to a final OD600=16. […]
# Typically 25-50 g of cell paste is resuspended in 250-500 mL TBS, pH 8.0 (25 mM Tris, 150 mM NaCl). […] After washing to baseline absorbance with equilibration buffer, the column is washed with approximately one column volume of TBS pH […] containing 95 mM imidazole. […] After washing to baseline absorbance with the dilution buffer the protein is eluted with a gradient from 50-500 mM NaCl. […]
# [2] = molecular target: T2, LXRα ligand binding domain (Homo sapiens, UniProt Q13133); assay: Ligand Sensing Assay for LXRα Agonist Activity; format: biochemical; settings: 1 μM; over a background reading of 10000 fluorescence units
# T2 construct: his tag; made in house
# T2 sequence (Q13133 183-447): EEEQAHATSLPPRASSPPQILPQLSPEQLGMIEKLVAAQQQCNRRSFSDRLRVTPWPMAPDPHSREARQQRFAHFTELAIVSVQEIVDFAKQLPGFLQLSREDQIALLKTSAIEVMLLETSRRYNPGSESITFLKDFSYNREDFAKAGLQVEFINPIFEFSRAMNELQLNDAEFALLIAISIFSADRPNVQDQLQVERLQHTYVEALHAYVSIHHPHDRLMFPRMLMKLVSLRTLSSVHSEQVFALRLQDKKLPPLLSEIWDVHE
# T2 sequence (Q15788 676-700 partner): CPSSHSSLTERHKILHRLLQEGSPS
# Experimental: Test Method 2: Ligand Sensing Assay for LXRα Agonist Activity
# The assay for LXRα was run according to the procedures of Test Method 1, above using his-tagged LXRα ligand binding domain (amino acids 183447 of Genbank accession number U22662, with the 14th amino acid corrected to A from R). In this assay 1 μM 24(S), 25-epoxycholesterol gave a reading of 20000 fluorescence units over a background reading of 10000 fluorescence units.
smiles,measurement,setting,value
"C[C@H](CC[C@@H]1OC1(C)C)[C@H]1CC[C@H]2[C@@H]3CC=C4C[C@@H](O)CC[C@]4(C)[C@H]3CC[C@]12C [24(S), 25-epoxycholesterol]",reading,[1],20000 fluorescence units
same,reading,[2],20000 fluorescence units
